Test results taken from PMC7870626, “Neurotoxicity and underlying cellular changes of 21 mitochondrial respiratory chain inhibitors” (Archives of Toxicology, 2021).
Entries after “also recorded” stand apart in the source; their conditions may differ. Read-outs that look alike come from different tables or passages of the source.

What was measured:
LUHMES cells [1] = experiment: Mitochondrial respiration of intact LUHMES cells (Seahorse OCR); assay type: cell-based, human; settings: d3 LUHMES, acute treatment, highest non-cytotoxic concentration (cII inhibitors 100 µM)
Method: Respiration of intact LUHMES cells was performed as described earlier (Delp et al. [2018a], [2019]). Briefly, 48 h differentiated cells were re-seeded into Agilent Seahorse XFe24-well plates in DM without cAMP and GDNF at a density of 100,000 cells/cm^2 and cultured for 24 h before the assay was initiated. Inhibition of respiration was calculated as the difference between baseline measurements (i.e., after equilibration, last measurement before treatment) and the first measurement after treatment with the test compound.

SH-SY5Y cells = assay type: cell-based, human; settings: up to 10 µM; for Neurite degeneration: 24 h exposure, without affecting viability; for Neurite degeneration (in words) / Reduction in viability: 120 h exposure
Method: The cells are able to form neurites and display several dopaminergic characteristics. […] Differentiation was initiated 24 h later (on day 0, d0) by exchange to 100 µl/well differentiation medium (DMEM:F12, supplemented with 1 µM all-trans retinoic acid (RA), 1 × N2 supplement, 2 mM L-glutamine, 100 µg/ml streptomycin, and 100 U/ml penicillin). All media and supplements were obtained from Gibco (ThermoFisher) except from RA (Sigma).
On d3, 100 µl of fresh differentiation medium were added to the wells. For the 120 h exposure, this medium contained twice the final treatment concentration. On d6, 100 µl from each well were removed, and the procedure was repeated and the cells were analyzed on d8. For the 24 h exposure, cells received an addition of 100 µl pure differentiation medium on d3 and were treated with compounds as described above on d6 for 24 h before analysis. […] The cells were incubated with the stain mixture for 20 min at 37 °C, 5% CO2. After incubation, 130 µL of differentiation medium were added to all the wells to stop further staining of the cells. Images were obtained using ImageXpress® Micro (Molecular Devices). […] The mean neurite length was calculated using the Neurite Outgrowth plug-in in the MetaXpress® Software. Outgrowths were defined as cytoplasmic prolongations with a maximum width of 2 µm (3 pixels). The minimum outgrowth size needed to be logged as significant was defined as 15 µm (23 pixels).

LUHMES cells [2] = experiment: Intracellular ATP content after NeuriTox exposure; assay type: cell-based; settings: Homo sapiens, 24 h
Method: (§1) The NeuriTox test was performed as previously described (Delp et al. [2018b]; Krug et al. [2013a]; Stiegler et al. [2011]). Briefly, cells differentiated for 48 h were re-seeded into 96-well plates at a density of 100,000 cells/cm^2 in DM without cAMP and GDNF, and treated 1 h after seeding for 24 h. Subsequently, multiple endpoints were determined, e.g., neurite outgrowth (i.e., NeuriTox test), resazurin reduction, intracellular ATP content, gene expression levels from TempO-Seq analysis, and proteasomal activity. For the 120 h exposure scenario, LUHMES cells were differentiated for another 3 days after reseeding before they were treated on day 5 (d5) and d7 by a half medium exchange. Endpoints were determined on d10 of differentiation.
Plates from the NeuriTox test were further used after imaging for determination of alternative endpoints. Intracellular ATP was determined as described earlier (Delp et al. [2019]). In brief, CellTiterGlo 2.0 assay mix (Promega) containing luciferase was added after imaging, and luminescence was recorded. For the determination of resazurin reduction, a 10 × resazurin stock solution was added after imaging to the medium (final resazurin concentration 2 µg/ml) (Delp et al. [2018a]). After 60 min incubation, resazurin fluorescence was recorded (ex: 530 nm, em: 590 nm). Background-corrected data was used for further analysis.

cI = molecular target: T1, cI (Homo sapiens, UniProt O75251+O75306+P03886); assay type: cell-based; settings: permeabilized LUHMES; capsaicin 50 µM, mepronil 100 µM
T1 construct: endogenous in cells; host or cells: LUHMES cells, digitonin-permeabilized
Method: (§2) To investigate individual respiratory chain complexes, a method developed earlier and described extensively was used (Delp et al. [2019]). In brief, LUHMES cells were seeded at a density of 205,000 cells/cm^2 in PM into Agilent Seahorse XFe24-well plates. […] To reduce data variability, internal normalization of the OCR of each well was done relative to its value after equilibration.

cII = molecular target: T2, cII (Homo sapiens, UniProt O14521+P21912+Q99643); experiment: Respiratory chain complex activity in permeabilized LUHMES cells: cII; assay type: cell-based; settings: mepronil at 100 µM
T2 construct: endogenous in cells; host or cells: LUHMES cells, digitonin-permeabilized
Method: as §2

cIII = molecular target: T3, cIII (Homo sapiens, UniProt P00156); experiment: Respiratory chain complex activity in permeabilized LUHMES cells: cIII; assay type: cell-based
T3 construct: endogenous in cells; host or cells: LUHMES cells, digitonin-permeabilized
Method: as §2

LUHMES cells [3] = experiment: LUHMES 120 h exposure scenario, neurite effects; assay type: cell-based, human
Method: as §1
Image acquisition and analysis was performed as described previously (Krug et al. [2013a]; Schildknecht et al. [2013]; Stiegler et al. [2011]). In brief, cells were live-stained with 1 µg/ml Hoechst H-33342 and 1 µM calcein-AM and image acquisition was done by an automated high content imager (Cellomics, Waltham, MA, USA). Cell viability was determined as ratio of live cells (cell bodies being Calcein- and Hoechst-positive) relative to the total amount of cells (Hoechst-positive cell bodies). Neurite area was calculated by subtracting the somatic area (Hoechst-positive area plus surrounding) from the calcein-positive area.

[4] = NeuriTox exposure scheme, read-out: LUHMES 24 h EC25 ATP (converted)

T2 sequence (P21912 29-280): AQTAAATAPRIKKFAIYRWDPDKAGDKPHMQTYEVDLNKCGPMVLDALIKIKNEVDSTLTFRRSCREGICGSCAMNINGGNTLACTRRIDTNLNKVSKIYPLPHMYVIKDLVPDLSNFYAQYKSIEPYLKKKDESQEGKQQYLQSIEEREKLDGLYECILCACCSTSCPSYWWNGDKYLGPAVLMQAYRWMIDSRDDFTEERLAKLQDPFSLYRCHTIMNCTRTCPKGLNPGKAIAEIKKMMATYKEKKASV
T2 sequence (Q99643 30-169): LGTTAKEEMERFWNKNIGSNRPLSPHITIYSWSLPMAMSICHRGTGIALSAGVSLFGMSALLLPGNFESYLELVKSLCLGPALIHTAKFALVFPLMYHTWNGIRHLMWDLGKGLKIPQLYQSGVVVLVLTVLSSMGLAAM
T2 sequence (O14521 57-159): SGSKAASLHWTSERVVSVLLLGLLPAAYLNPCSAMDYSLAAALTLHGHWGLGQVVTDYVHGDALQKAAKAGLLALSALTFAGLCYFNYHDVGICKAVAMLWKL
T2 sequence (P31040 43-664 partner): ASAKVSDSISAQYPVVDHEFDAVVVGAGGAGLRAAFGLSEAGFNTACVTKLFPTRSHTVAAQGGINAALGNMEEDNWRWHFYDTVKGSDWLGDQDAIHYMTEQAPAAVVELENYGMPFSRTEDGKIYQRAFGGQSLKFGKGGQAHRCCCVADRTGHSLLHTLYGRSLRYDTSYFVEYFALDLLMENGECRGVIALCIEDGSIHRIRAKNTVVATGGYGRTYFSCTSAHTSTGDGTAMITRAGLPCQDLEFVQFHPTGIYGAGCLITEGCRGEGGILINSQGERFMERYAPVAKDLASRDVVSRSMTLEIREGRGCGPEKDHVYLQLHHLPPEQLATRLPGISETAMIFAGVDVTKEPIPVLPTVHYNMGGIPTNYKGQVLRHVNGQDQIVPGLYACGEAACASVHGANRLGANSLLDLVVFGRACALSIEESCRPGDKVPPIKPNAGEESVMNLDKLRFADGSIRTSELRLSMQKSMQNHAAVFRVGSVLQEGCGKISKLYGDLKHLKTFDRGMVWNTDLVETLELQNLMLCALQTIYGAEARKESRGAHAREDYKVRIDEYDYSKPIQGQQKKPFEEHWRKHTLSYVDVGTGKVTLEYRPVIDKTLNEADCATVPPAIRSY
T1 sequence (O75306 34-463): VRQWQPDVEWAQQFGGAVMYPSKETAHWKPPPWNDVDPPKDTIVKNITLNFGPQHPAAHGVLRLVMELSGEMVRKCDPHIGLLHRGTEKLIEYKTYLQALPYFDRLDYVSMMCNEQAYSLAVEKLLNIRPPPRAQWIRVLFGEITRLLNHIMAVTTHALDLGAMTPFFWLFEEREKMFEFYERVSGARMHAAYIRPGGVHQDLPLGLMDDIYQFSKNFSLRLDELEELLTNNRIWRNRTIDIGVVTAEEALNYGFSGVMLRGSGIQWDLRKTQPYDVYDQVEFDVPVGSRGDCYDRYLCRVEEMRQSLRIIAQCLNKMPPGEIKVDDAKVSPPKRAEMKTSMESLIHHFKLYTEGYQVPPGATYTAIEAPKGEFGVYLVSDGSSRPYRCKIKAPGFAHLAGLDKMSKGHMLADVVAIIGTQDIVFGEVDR
T1 sequence (P03886 whole entry): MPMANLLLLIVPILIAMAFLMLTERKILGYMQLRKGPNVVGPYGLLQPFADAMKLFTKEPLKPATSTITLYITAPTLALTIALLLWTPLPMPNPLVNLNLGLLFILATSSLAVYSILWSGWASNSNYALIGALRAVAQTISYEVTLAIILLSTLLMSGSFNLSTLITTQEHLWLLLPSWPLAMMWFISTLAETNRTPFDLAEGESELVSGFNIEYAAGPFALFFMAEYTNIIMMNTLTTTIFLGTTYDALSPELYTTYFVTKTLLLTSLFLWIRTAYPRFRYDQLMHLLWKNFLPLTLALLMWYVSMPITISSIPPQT
T1 sequence (O75251 39-213): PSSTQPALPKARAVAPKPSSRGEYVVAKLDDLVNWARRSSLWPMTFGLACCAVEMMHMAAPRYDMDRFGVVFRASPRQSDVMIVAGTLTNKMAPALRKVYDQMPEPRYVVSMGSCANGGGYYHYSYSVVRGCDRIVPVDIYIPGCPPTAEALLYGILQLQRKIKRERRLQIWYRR

Compound | Inhibition of total mitochondrial respiration of intact cells (LUHMES cells [1]) | Neurite degeneration (SH-SY5Y cells) | Neurite degeneration (in words) (SH-SY5Y cells) | Reduction in viability (SH-SY5Y cells) [%] | EC25 (LUHMES cells [2]; [4]) [µM] | Inhibition of cII activity (in words) (cII) | Increase in sensitivity of neurite EC25, 120 h versus 24 h exposure (LUHMES cells [3]) | further results
CCCCCC[C@H]1C(=O)O[C@H](C)[C@H](NC(=O)c2cccc(NC=O)c2O)C(=O)O[C@@H](C)[C@@H]1OC(=O)CC(C)C [Antimycin A] | strong inhibitory effects | > 25% | degeneration of neurites | > 25 | 25.1 |  |  | 
COc1cc(CNC(=O)CCCC/C=C/C(C)C)ccc1O [Capsaicin] | weak response |  |  |  | > 50.1 |  |  | Inhibition of cI activity (in words) (cI): no significant response
CC1=C(C(=O)Nc2ccccc2)SCCO1 [Carboxin] |  |  |  |  | > 100 | strong inhibition of cII |  | 
Cc1ccc(-c2c(Cl)nc(C#N)n2S(=O)(=O)N(C)C)cc1 [Cyazofamid] | inactive | > 25% | degeneration of neurites; also recorded: increased neurite degeneration | > 25 | > 50.1 |  | five-to-eightfold | Inhibition of cIII activity (in words) (cIII; cIII electron donor): not active at all; Uncoupling action (cIII; neuronal mitochondria, 50 µM): uncoupling action
COc1cc2c(cc1OC)[C@@H]1C(=O)c3ccc4c(c3O[C@@H]1CO2)C=CC(C)(C)O4 [Deguelin] |  | no effects | degeneration of neurites; also recorded: increased neurite degeneration | > 25 | 10 |  | five-to-eightfold | 
Cc1ccccc1C(=O)Nc1cccc(OC(C)C)c1 [Mepronil] |  |  |  |  | > 100 | significant, but weak inhibitor |  | Inhibition of cI activity (in words) (cI): weakly affected cI
COC(=O)N(OC)c1ccccc1COc1ccn(-c2ccc(Cl)cc2)n1 [Pyraclostrobin] |  |  |  |  | 12.6 |  | five-to-eightfold | 
CCOCCc1ccc(OCCN=c2[nH]cnc(CC)c2Cl)c(C)c1C [Pyrimidifen] |  |  |  |  | 20 |  | 9.8 fold | 
C=C(C)[C@H]1Cc2c(ccc3c2O[C@@H]2COc4cc(OC)c(OC)cc4[C@@H]2C3=O)O1 [Rotenone] |  | > 25% | degeneration of neurites | > 25 |  |  |  | EC25 (LUHMES cells [2]; read-out: LUHMES 24 h EC25 ATP): 5.01 µM
Cc1nc(C(F)(F)F)c(C(=O)Nc2c(Br)cc(OC(F)(F)F)cc2Br)s1 [Thifluzamide] |  |  |  |  | 20 | strong inhibition of cII | five-to-eightfold | 
